In ChEMBL document CHEMBL4334520, “Nonadride and Spirocyclic Anhydride Derivatives from the Plant Endophytic Fungus Talaromyces purpurogenus” (J Nat Prod, 2019):
pIC50: −log10 of the molar value.

Legend:
[1] = target: Xanthine dehydrogenase/oxidase (Homo sapiens, UniProt P47989); assay: Inhibition of xanthine oxidase (unknown origin) at 10 uM using xanthine as substrate incubated for 15 mins relative to control; settings: 0.25 h
RAW264.7 [2] = assay: Anti-inflammatory activity in mouse RAW264.7 cells assessed as inhibition of LPS-induced NO production pretreated with compounds followed by LPS stimulation incubated for 24 hrs by Griess assay; type: functional, cell-based
RAW264.7 [3] = assay: Growth inhibition of mouse RAW264.7 cells relative to control; type: cell-based
[4] = target: T1, Tyrosine-protein phosphatase non-receptor type 1 (Homo sapiens) (UniProt P18031); assay: Inhibition of recombinant human PTP1B expressed in Escherichia coli BL21 at 10 uM using […] as substrate […] for 5 mins followed by substrate addition measured after 10 mins relative to control
T1 sequence (whole entry): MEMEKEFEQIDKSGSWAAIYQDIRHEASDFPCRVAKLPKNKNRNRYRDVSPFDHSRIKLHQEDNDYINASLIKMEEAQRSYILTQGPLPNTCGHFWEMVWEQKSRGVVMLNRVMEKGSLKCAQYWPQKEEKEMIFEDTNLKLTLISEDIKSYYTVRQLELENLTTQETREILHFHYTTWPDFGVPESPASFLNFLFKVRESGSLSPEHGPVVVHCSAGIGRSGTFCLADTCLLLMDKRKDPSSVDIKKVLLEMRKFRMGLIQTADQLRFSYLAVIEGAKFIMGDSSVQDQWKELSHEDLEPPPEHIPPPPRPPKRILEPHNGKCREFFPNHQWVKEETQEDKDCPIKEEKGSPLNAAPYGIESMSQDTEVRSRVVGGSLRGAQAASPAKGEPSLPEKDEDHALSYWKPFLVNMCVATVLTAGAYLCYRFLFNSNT

Sequence of Xanthine dehydrogenase/oxidase (P47989 whole entry): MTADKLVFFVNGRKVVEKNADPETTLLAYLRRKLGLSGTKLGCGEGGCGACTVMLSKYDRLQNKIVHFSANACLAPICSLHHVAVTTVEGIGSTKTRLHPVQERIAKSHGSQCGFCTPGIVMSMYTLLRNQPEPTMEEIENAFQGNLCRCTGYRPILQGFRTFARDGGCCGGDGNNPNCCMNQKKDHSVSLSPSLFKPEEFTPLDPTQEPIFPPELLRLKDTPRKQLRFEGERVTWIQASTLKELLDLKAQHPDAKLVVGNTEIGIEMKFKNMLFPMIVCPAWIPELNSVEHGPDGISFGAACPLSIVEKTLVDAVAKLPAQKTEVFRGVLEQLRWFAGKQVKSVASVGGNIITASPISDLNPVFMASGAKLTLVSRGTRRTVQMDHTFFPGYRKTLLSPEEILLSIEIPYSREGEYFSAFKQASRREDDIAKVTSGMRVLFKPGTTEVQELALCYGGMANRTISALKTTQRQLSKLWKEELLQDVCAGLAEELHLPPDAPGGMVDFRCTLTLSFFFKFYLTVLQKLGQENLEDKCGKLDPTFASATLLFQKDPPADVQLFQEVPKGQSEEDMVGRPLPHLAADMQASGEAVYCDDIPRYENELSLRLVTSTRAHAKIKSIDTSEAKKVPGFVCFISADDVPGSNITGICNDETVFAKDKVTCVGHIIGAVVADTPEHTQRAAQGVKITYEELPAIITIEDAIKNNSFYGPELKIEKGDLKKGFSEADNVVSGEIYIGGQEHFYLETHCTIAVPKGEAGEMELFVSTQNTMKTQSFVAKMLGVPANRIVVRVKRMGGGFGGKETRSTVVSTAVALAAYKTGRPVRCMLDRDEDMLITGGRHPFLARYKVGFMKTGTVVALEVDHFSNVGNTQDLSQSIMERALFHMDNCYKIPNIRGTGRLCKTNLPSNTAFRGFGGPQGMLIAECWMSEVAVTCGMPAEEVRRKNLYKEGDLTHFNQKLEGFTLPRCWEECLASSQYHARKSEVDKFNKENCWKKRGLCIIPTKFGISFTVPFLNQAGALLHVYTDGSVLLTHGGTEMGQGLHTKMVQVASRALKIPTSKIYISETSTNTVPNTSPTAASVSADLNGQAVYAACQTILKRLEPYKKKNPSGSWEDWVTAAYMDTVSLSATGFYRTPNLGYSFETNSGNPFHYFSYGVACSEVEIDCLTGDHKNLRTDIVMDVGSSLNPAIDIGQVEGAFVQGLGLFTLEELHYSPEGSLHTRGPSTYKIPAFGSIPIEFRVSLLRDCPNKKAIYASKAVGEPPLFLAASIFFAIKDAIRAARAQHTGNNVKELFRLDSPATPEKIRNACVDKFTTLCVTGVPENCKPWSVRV

CCCCCC[C@H](O)[C@@H]1/C(C(=O)O)=C(/C(=O)O)C[C@H]([C@@H](O)[C@H](O)CCCC)CC2=C(C(=O)OC2=O)[C@H]1O
inhibition at 10 µM [1]: 67%

CCCCCC[C@H](O)[C@@H]1/C(C(=O)O)=C(/C(=O)O)C[C@H]([C@@H](O)[C@H]2CC=CC(=O)O2)CC2=C(C(=O)OC2=O)[C@H]1O
pIC50 (RAW264.7 [2]): 5.72 | growth inhibition (GI) (RAW264.7 [3]): -14.5%

CCCCCCC[C@@H](CC1=C(/C=C/CCC/C=C\CO)C(=O)OC1=O)C1=C(C)C(=O)OC1=O
inhibition [4]: 76%
